According to patent publication US20130102009A1, “SIRTUIN ACTIVATORS AND ACTIVATION ASSAYS” (priority 2010, published 2013):
Peptide text beside a SMILES is read from it. * marks the point of attachment. AMC = Cc1cc(=O)oc2cc(N*)ccc12

Biological target: T1, SIRT1(183-664) (Homo sapiens, UniProt Q96EB6)
T1 construct: the truncated version used for biophysical studies SIRT1(183-664); made in house
T1 sequence (Q96EB6 183-664): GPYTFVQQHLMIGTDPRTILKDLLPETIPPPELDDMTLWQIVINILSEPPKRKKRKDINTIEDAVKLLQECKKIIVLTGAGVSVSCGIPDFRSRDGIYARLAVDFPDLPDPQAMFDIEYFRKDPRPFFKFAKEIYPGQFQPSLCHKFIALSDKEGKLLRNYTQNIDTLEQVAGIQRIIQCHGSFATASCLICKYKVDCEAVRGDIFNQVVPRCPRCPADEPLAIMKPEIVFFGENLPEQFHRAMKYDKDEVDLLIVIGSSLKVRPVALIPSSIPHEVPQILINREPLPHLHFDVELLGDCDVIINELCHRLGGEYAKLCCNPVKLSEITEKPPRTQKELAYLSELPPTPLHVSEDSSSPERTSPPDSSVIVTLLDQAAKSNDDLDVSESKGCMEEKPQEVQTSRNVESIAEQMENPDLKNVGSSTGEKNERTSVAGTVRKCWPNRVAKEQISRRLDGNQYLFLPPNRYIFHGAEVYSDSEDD
Assay: ITC binding of STACs to SIRT1(183-664)
Settings: dissociation constant of SRT:SIRT1 complex, read-out: Kx (μM), ITC
Protocol: All peptides were prepared by BioPeptide (San Diego, Calif.) and shown to be at least 95% pure by analytical HPLC analysis. Bovine glutamate dehydrogenase (GDH), α-ketoglutarate, NADH and NAD^+ were from Sigma Chemical Company. Full-length, human SIRT1 and the truncated version used for biophysical studies SIRT1(183-664) were prepared as described previously, and shown to have equivalent kinetic properties (Milne et al. (2007) Nature 450, 712-716). The nicotinamidase PNC1 was prepared as described by Denu and colleagues (Smith et al. (2009) Anal Biochem 394, 101-109). ITC experiments were performed using either a VP-ITC system or iTC200 system (MicroCal) at 26° C. in a buffer composed of 137 mM NaCl, 2.7 mM KCl, 1 mM MgCl2, 2 mM TCEP, 5% (v/v) glycerol and 50 mM HEPES-NaOH, pH 7.3. SIRT1(183-664) was purified and dialyzed against the buffer, centrifuged, and degassed before the experiment. The peptide and compounds were dissolved in the final dialysis buffer and their pH values were adjusted to match that of the protein solution. […] To characterize this interaction using the iTC200 system, 1 mM TAMRA-peptide was injected in 20 aliquots of 2 μL, (except the first injection, which was 0.5 μL) into a 0.202 mL sample cell containing 100 μM STAC. For STACs with poor solubility, the concentrations were adjusted accordingly. […] To characterize the interaction of a STAC with SIRT1(183-664) on the VP-ITC system, 100 μM enzyme was injected in 35 aliquots of 8 μL, (except the first injection, which was 2 μL) into a 1.47 mL sample cell containing 10 μM STAC. […] In all cases, data was corrected for the heat of dilution and fitted using a nonlinear least-squares routine using a single-site binding model with Origin for ITC v7.0383 (Microcal) with the stoichiometry (n), the enthalpy of the reaction (ΔH) and the association constant (Ka) calculated.

Row | Kd | Compound
1 | 0.43 µM | CCCNc1cc(-c2nc3c(NC(=O)c4ccc(CN5CCNCC5)cc4)cccc3[nH]2)ccn1 [drawing 20]
2 | 0.32 µM | CN(C)CCCNc1cc(-c2nc3c(NC(=O)c4ccc(CN5CCNCC5)cc4)cccc3[nH]2)ccn1 [drawing 21]

Biological target: T2, SIRT1 (Homo sapiens, UniProt Q96EB6)
T2 sequence (Q96EB6 1-747): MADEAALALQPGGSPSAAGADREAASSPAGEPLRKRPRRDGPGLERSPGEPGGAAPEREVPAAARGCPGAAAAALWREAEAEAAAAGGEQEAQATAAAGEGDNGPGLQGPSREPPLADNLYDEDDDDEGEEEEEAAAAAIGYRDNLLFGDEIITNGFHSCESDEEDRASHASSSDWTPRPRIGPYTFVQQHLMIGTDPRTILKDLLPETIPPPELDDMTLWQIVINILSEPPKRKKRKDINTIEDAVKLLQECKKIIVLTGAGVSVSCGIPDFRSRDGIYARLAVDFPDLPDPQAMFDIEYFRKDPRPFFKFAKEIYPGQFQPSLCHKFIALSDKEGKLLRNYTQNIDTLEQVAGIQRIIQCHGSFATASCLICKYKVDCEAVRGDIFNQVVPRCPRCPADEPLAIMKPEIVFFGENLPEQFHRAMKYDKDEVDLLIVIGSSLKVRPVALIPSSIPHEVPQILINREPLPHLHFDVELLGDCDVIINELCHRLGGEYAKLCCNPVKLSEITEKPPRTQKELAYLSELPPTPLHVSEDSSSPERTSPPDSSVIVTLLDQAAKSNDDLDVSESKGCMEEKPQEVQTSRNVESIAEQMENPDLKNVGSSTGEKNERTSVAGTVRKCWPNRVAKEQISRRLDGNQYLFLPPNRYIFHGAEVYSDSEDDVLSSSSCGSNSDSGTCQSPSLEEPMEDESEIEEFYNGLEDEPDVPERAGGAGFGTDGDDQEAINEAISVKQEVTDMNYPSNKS
Assay: Steady-state kinetic parameters for SIRT1 substrates (PNC1-GDH-coupled assay)
Type: biochemical
Design: kc/K1: unit not given here
Settings: 25° C., pH 7.5, [NAD+]o = 2 mM, [SIRT1]o 50-1,000 nM
Protocol: All peptides were prepared by BioPeptide (San Diego, Calif.) and shown to be at least 95% pure by analytical HPLC analysis. Bovine glutamate dehydrogenase (GDH), α-ketoglutarate, NADH and NAD^+ were from Sigma Chemical Company. Full-length, human SIRT1 and the truncated version used for biophysical studies SIRT1(183-664) were prepared as described previously, and shown to have equivalent kinetic properties (Milne et al. (2007) Nature 450, 712-716). The nicotinamidase PNC1 was prepared as described by Denu and colleagues (Smith et al. (2009) Anal Biochem 394, 101-109).
To determine the interaction of STACs with SIRT1 two kinetic methods were employed. One, which was used for TAMRA-peptide, desTAMRA-peptide, des(biotin,TAMRA)-peptide, and p53-20 mer, used a previously described mass spectroscopic method for detection of peptide reaction products (Milne et al. (2007) Nature 450, 712-716). The other, used with peptides of general structure Ac-Arg-His-Lys-Lys^Ac-X, used a continuous, enzyme-coupled method reported previously (Smith et al. (2009) Anal Biochem 394, 101-109), in which the SRT1 product nicotinamide is first converted into nicotinic acid and ammonia by the action of PNC1, and the ammonia then used by GDH to convert α-ketoglutarate into glutamate. This reaction occurs with oxidation of NADH to NAD^+ which is accompanied by a change in absorbance at 340 nm (Δε340=−6,200 M^−1 cm^−1).
The kinetic experiments used to characterize activators were run on a Perkin Elmer Lambda 25 spectrophotometer equipped with a water-jacketed, eight-cell changer maintained at 25° C. In a typical kinetic experiment, all components of the reaction solution except SIRT1 were added to a 1 mL cuvette and allowed to reach thermal equilibrium. Final concentrations of the coupling system components were: 1 μM PNC1, 0.23 mM NADH, 3.4 mM α-ketoglutarate, and 20 U/mL bovine GDH. This solution also contained peptide substrate, NAD^.0., and activator, at concentrations indicated in the text. The final DMSO concentration was kept constant at 1%, and the buffer used in these experiments was 50 mM HEPES, 150 mM NaCl, pH 7.5. While the system was reaching thermal equilibrium, the absorbance was monitored to provide an accurate estimate of the background rate, which was subtracted from the reaction rate after the addition of SIRT1.
The parameters reported in this table were all determined using the PNC1-GDH-coupled assay. Kinetic parameters for the four 20 mers were also estimated using the mass spectroscopy-based assay first described by Milne et al. ((2007) Nature 450, 712-716) and agree with those reported in Table 3.

Row | kc | kc/K1 | Compound | Km
3 | 0.14 s⁻¹ | 6.0 | CC(=O)NCCCC[C@H](NC(=O)[C@H](CCCCN)NC(=O)[C@H](Cc1c[nH]cn1)NC(=O)[C@H](CCCNC(=N)N)NC(C)=O)C(N)=O [RHKK^Ac, Ac-Arg-His-Lys-Lys^Ac-NH2] (Ac-RHKK(Ac)-NH2) | 
4 | 0.091 s⁻¹ | 0.8 | CC(=O)NCCCC[C@H](NC(=O)[C@H](CCCCN)NC(=O)[C@H](Cc1c[nH]cn1)NC(=O)[C@H](CCCNC(=N)N)NC(C)=O)C(=O)Nc1ccc2c(C)cc(=O)oc2c1 [RHKK^Ac-AMC, Ac-Arg-His-Lys-Lys^Ac-AMC] (Ac-RHKK(Ac)-{AMC}) | 
5 | 0.15 s⁻¹ | 12 | CC(=O)NCCCC[C@H](NC(=O)[C@H](CCCCN)NC(=O)[C@H](Cc1c[nH]cn1)NC(=O)[C@H](CCCNC(=N)N)NC(C)=O)C(=O)N[C@@H](C)C(N)=O [RHKK^AcA, Ac-Arg-His-Lys-Lys^Ac-Ala] (Ac-RHKK(Ac)A-NH2) | 
6 | 0.16 s⁻¹ | 23 | CC(=O)NCCCC[C@H](NC(=O)[C@H](CCCCN)NC(=O)[C@H](Cc1c[nH]cn1)NC(=O)[C@H](CCCNC(=N)N)NC(C)=O)C(=O)N[C@@H](Cc1ccccc1)C(N)=O [RHKK^AcF, Ac-Arg-His-Lys-Lys^Ac-Phe-NH2] (Ac-RHKK(Ac)F-NH2) | 
7 | 0.19 s⁻¹ | 48 | CC(=O)NCCCC[C@H](NC(=O)[C@H](CCCCN)NC(=O)[C@H](Cc1c[nH]cn1)NC(=O)[C@H](CCCNC(=N)N)NC(C)=O)C(=O)N[C@@H](Cc1c[nH]c2ccccc12)C(N)=O [RHKK^AcW, Ac-Arg-His-Lys-Lys^Ac-Trp-NH2] (Ac-RHKK(Ac)W-NH2) | 
8 | 0.36 s⁻¹ | 42 | SKKGQSTSRHKK^AcLJKTEGP [p53-20mer] | 8.5 µM

Row | Compound | kc | kc/K1 | Km
9 | Ac-EEK^(biotin)GQSTSSHSK^AcNle-STEGK^(5-TMR)EE-NH2 [TAMRA-peptide] | 0.036 s⁻¹ | 4.3 | 8.3 µM
10 | EEKGQSTSSHK^AcJSTEGKEE [des(Biotin,TAMRA)-peptide] | 0.044 s⁻¹ | 1.1 | 40 µM
